Measured values as given in ChEMBL document CHEMBL1782000, “Thiazole-based chalcones as potent antimicrobial agents. Synthesis and biological evaluation” (2011).
In brackets after ≈: the same amount, converted by molar mass.

How the values were obtained:
[1] = test system: Staphylococcus aureus; test: Antibacterial activity against Staphylococcus aureus ATCC 6538 after 24 hrs by microdilution method; format: functional; details: ATCC 6538, 24 h
[2] = test system: Bacillus cereus; test: Antibacterial activity against Bacillus cereus clinical isolate after 24 hrs by microdilution method; format: functional
[3] = test system: Micrococcus flavus; test: Antibacterial activity against Micrococcus flavus ATCC 10240 after 24 hrs by microdilution method; format: functional; details: ATCC 10240, 24 h
[4] = test system: Listeria monocytogenes; test: Antibacterial activity against Listeria monocytogenes NCTC 7973 after 24 hrs by microdilution method; format: functional; details: NCTC 7973, 24 h
[5] = test system: Pseudomonas aeruginosa; test: Antibacterial activity against Pseudomonas aeruginosa ATCC 27853 after 24 hrs by microdilution method; format: functional; details: ATCC 27853, 24 h
[6] = test system: Salmonella typhimurium; test: Antibacterial activity against Salmonella Typhimurium ATCC 13311 after 24 hrs by microdilution method; format: functional, Salmonella enterica subsp. enterica serovar Typhimurium; details: Salmonella enterica, ATCC 13311, 24 h
[7] = test system: Escherichia coli; test: Antibacterial activity against Escherichia coli ATCC 35210 after 24 hrs by microdilution method; format: functional; details: ATCC 35210, 24 h
[8] = test system: Enterococcus faecalis; test: Antibacterial activity against Enterococcus faecalis isolate obtained from human after 24 hrs by microdilution method; format: functional
[9] = test system: Staphylococcus aureus; test: Bactericidal activity against Staphylococcus aureus ATCC 6538 after 24 hrs; format: functional; details: ATCC 6538, 24 h
[10] = test system: Bacillus cereus; test: Bactericidal activity against Bacillus cereus clinical isolate after 24 hrs; format: functional
[11] = test system: Micrococcus flavus; test: Bactericidal activity against Micrococcus flavus ATCC 10240 after 24 hrs; format: functional; details: ATCC 10240, 24 h
[12] = test system: Listeria monocytogenes; test: Bactericidal activity against Listeria monocytogenes NCTC 7973 after 24 hrs; format: functional; details: NCTC 7973, 24 h
[13] = test system: Pseudomonas aeruginosa; test: Bactericidal activity against Pseudomonas aeruginosa ATCC 27853 after 24 hrs; format: functional; details: ATCC 27853, 24 h
[14] = test system: Salmonella typhimurium; test: Bactericidal activity against Salmonella Typhimurium ATCC 13311 after 24 hrs; format: functional, Salmonella enterica subsp. enterica serovar Typhimurium; details: Salmonella enterica, ATCC 13311, 24 h
[15] = test system: Escherichia coli; test: Bactericidal activity against Escherichia coli ATCC 35210 after 24 hrs; format: functional; details: ATCC 35210, 24 h
[16] = test system: Enterococcus faecalis; test: Bactericidal activity against Enterococcus faecalis isolate obtained from human after 24 hrs; format: functional
[17] = test system: Aspergillus ochraceus; test: Antifungal activity against Aspergillus ochraceus ATCC 12066 after 72 hrs by serial dilution method; format: functional; details: ATCC 12066, 72 h
[18] = test system: Aspergillus versicolor; test: Antifungal activity against Aspergillus versicolor ATCC 11730 after 72 hrs by serial dilution method; format: functional; details: ATCC 11730, 72 h
[19] = test system: Aspergillus niger; test: Antifungal activity against Aspergillus niger ATCC 6275 after 72 hrs by serial dilution method; format: functional; details: ATCC 6275, 72 h
[20] = test system: Aspergillus fumigatus; test: Antifungal activity against Aspergillus fumigatus plant isolate after 72 hrs by serial dilution method; format: functional
[21] = test system: Trichoderma viride; test: Antifungal activity against Trichoderma viride IAM 5061 after 72 hrs by serial dilution method; format: functional; details: IAM 5061, 72 h
[22] = test system: Penicillium ochrochloron; test: Antifungal activity against Penicillium ochrochloron ATCC 9112 after 72 hrs by serial dilution method; format: functional; details: ATCC 9112, 72 h
[23] = test system: Talaromyces funiculosus; test: Antifungal activity against Penicillium funiculosum ATCC 36839 after 72 hrs by serial dilution method; format: functional; details: ATCC 36839, 72 h
[24] = Antifungal activity against Fusarium sporotrichioides IMT 496 after 72 hrs by serial dilution method; format: functional
[25] = test system: Aspergillus ochraceus; test: Fungicidal activity against Aspergillus ochraceus ATCC 12066 after 72 hrs; format: functional; details: ATCC 12066, 72 h
[26] = test system: Aspergillus versicolor; test: Fungicidal activity against Aspergillus versicolor ATCC 11730 after 72 hrs; format: functional; details: ATCC 11730, 72 h
[27] = test system: Aspergillus niger; test: Fungicidal activity against Aspergillus niger ATCC 6275 after 72 hrs; format: functional; details: ATCC 6275, 72 h
[28] = test system: Aspergillus fumigatus; test: Fungicidal activity against Aspergillus fumigatus plant isolate after 72 hrs; format: functional
[29] = test system: Trichoderma viride; test: Fungicidal activity against Trichoderma viride IAM 5061 after 72 hrs; format: functional; details: IAM 5061, 72 h
[30] = test system: Penicillium ochrochloron; test: Fungicidal activity against Penicillium ochrochloron ATCC 9112 after 72 hrs; format: functional; details: ATCC 9112, 72 h
[31] = test system: Talaromyces funiculosus; test: Fungicidal activity against Penicillium funiculosum ATCC 36839 after 72 hrs; format: functional; details: ATCC 36839, 72 h
[32] = test system: Fusarium sporotrichioides; test: Fungicidal activity against Fusarium sporotrichioides IMT 496 after 72 hrs; format: functional; details: IMT 496, 72 h

Compound | MIC [1] | MIC [2] | MIC [3] | MIC [4] | MIC [5] | MIC [6] | MIC [7] | MIC [8] | MBC [9] | MBC [10] | MBC [11] | MBC [12] | MBC [13] | MBC [14] | MBC [15] | MBC [16] | MIC [17] | MIC [18] | MIC [19] | MIC [20] | further results
CNc1nc(C)c(C(=O)/C=C/c2ccc(Cl)cc2Cl)s1 | 306 µM (≈ 100 µg/mL) | 229 µM (≈ 75 µg/mL) | 306 µM (≈ 100 µg/mL) | 306 µM (≈ 100 µg/mL) | 306 µM (≈ 100 µg/mL) | 229 µM (≈ 75 µg/mL) | 306 µM (≈ 100 µg/mL) | 306 µM (≈ 100 µg/mL) | 459 µM (≈ 150 µg/mL) | 306 µM (≈ 100 µg/mL) | 459 µM (≈ 150 µg/mL) | 459 µM (≈ 150 µg/mL) | 306 µM (≈ 100 µg/mL) | 306 µM (≈ 100 µg/mL) | 459 µM (≈ 150 µg/mL) | 459 µM (≈ 150 µg/mL) | 306 µM (≈ 100 µg/mL) | 153 µM (≈ 50 µg/mL) | 459 µM (≈ 150 µg/mL) | 153 µM (≈ 50 µg/mL) | MIC [21]: 153 µM (≈ 50 µg/mL); MIC [22]: 306 µM (≈ 100 µg/mL); MIC [23]: 153 µM (≈ 50 µg/mL); MIC (10'-2 umol/ml) [24]: 15.3; MFC [25]: 612 µM (≈ 200 µg/mL); MFC [26]: 612 µM (≈ 200 µg/mL); MFC [27]: 612 µM (≈ 200 µg/mL); MFC [28]: 612 µM (≈ 200 µg/mL); MFC [29]: 306 µM (≈ 100 µg/mL); MFC [30]: 612 µM (≈ 200 µg/mL); MFC [31]: 306 µM (≈ 100 µg/mL); MFC [32]: 306 µM (≈ 100 µg/mL)
CNc1nc(C)c(C(=O)/C=C/c2ccccc2)s1 | 388 µM (≈ 100 µg/mL) | 388 µM (≈ 100 µg/mL) | 194 µM (≈ 50 µg/mL) | 388 µM (≈ 100 µg/mL) | 291 µM (≈ 75.1 µg/mL) | 329 µM (≈ 85.1 µg/mL) | 329 µM (≈ 85.1 µg/mL) | 194 µM (≈ 50 µg/mL) | 581 µM (≈ 150 µg/mL) | 581 µM (≈ 150 µg/mL) | 388 µM (≈ 100 µg/mL) | 581 µM (≈ 150 µg/mL) | 388 µM (≈ 100 µg/mL) | 388 µM (≈ 100 µg/mL) | 388 µM (≈ 100 µg/mL) | 388 µM (≈ 100 µg/mL) | 388 µM (≈ 100 µg/mL) | 194 µM (≈ 50.1 µg/mL) | 388 µM (≈ 100 µg/mL) | 388 µM (≈ 100 µg/mL) | MIC [21]: 194 µM (≈ 50.1 µg/mL); MIC [22]: 194 µM (≈ 50.1 µg/mL); MIC [23]: 388 µM (≈ 100 µg/mL); MIC (10'-2 umol/ml) [24]: 38.8; MFC [25]: 581 µM (≈ 150 µg/mL); MFC [26]: 581 µM (≈ 150 µg/mL); MFC [27]: 775 µM (≈ 200 µg/mL); MFC [28]: 581 µM (≈ 150 µg/mL); MFC [29]: 388 µM (≈ 100 µg/mL); MFC [30]: 775 µM (≈ 200 µg/mL); MFC [31]: 581 µM (≈ 150 µg/mL); MFC [32]: 388 µM (≈ 100 µg/mL)
